# Experiments:
# Type in all cases: biochemical
# [1] = test system: CBH I polypeptide BD29555, wild type, SEQ ID NO:1; test: 4-Methylumbelliferyl lactoside (4-MUL) assay, cellobiose inhibition, wild type BD29555
# Description: (§1) 4-Methylumbelliferyl Lactoside (4-MUL) Assay: This assay measures the activity of CBH I on the fluorogenic substrate 4-MUL (also known as MUL). Assays were run in a costar 96-well black bottom plate, where reactions were initiated by the addition of 4-MUL to enzyme in buffer (2 mM 4-MUL in 200 mM MES pH 6). Enzymatic rates were monitored by fluorescent readouts over five minutes on a SPECTRAMAX™ plate reader (ex/em 365/450 nm). Data in the linear range was used to calculate initial rates (Vo).
# (§2) Cellobiose Tolerance Assays (or Cellobiose Inhibition Assays): Tolerance to cellobiose (or inhibition caused by cellobiose) was tested in two ways in the CBH I assays. A direct-dose tolerance method can be applied to all of the CBH I assays (i.e., 4-MUL, PASC, and/or bagasse assays), and entails the exogenous addition of a known amount of cellobiose into assay mixtures. A different indirect method entails the addition of an excess amount of β-glucosidase (BG) to PASC and bagasse assays (typically, 1 mg β-glucosidase/g solids loaded). […]
# (§3) Cellobiose dose response curves of the wild-type and R273K/R422K variant of BD29555 were obtained during the 4-MUL assay. Enzyme rates (Vo) were measured in the presence of different concentrations of cellobiose (200 mM MES pH 6, 25° C.). Rates were measured in quadruplicate.
# [2] = test system: BD29555 CBH I variant R273K/R422K (R268K/R411K by T. reesei numbering; parent SEQ ID NO:1; full length SEQ ID NO:301, mature SEQ ID NO:302); test: 4-MUL assay, cellobiose inhibition, BD29555 R273K/R422K variant
# Description: as §1
# (§4) Cellobiose Tolerance Assays (or Cellobiose Inhibition Assays): Tolerance to cellobiose (or inhibition caused by cellobiose) was tested in two ways in the CBH I assays. A direct-dose tolerance method can be applied to all of the CBH I assays (i.e., 4-MUL, PASC, and/or bagasse assays), and entails the exogenous addition of a known amount of cellobiose into assay mixtures. A different indirect method entails the addition of an excess amount of β-glucosidase (BG) to PASC and bagasse assays (typically, 1 mg β-glucosidase/g solids loaded). BG will enzymatically hydrolyze the cellobiose generated during these assays; therefore, CBH I activity in the presence of BG can be taken as a measure of activity in the absence of cellobiose. Furthermore, when activity in the presence and absence of BG are similar, this indicates tolerance to cellobiose.
# (§5) The wild type CBH I polypeptide BD29555 was mutagenized to identify variants with improved product tolerance. […] This product-release-site library was designed based on residues directly interacting with the cellobiose product in an attempt to identify variants with weakened interactions with cellobiose from which the product would be released more readily than the wild type enzyme. […]
# as §3
# [3] = test system: BD29555 CBH I variant R273K/Y274Q/D281K/Y410H/P411G/R422K (parent SEQ ID NO:1); test: 4-MUL assay, cellobiose inhibition, BD29555 R273K/Y274Q/D281K/Y410H/P411G/R422K variant; conditions: 250 mg/L cellobiose, (activity with cellobiose)/(activity without cellobiose)*100
# Description: as §1
# as §4, with “to cellobiose. […]” for “to cellobiose.”
# [4] = molecular target: T1, T. reesei CBH I, wild type, SEQ ID NO:2 (Trichoderma reesei, UniProt P62694, INS458P/R459P); test: 4-MUL assay, cellobiose inhibition, wild type T. reesei CBH I; conditions: read-out: % Activity in 4-MUL Assay (+/−Cellobiose)
# T1 sequence (P62694 other isoform, or with tags, fused parts or gaps INS458P/R459P): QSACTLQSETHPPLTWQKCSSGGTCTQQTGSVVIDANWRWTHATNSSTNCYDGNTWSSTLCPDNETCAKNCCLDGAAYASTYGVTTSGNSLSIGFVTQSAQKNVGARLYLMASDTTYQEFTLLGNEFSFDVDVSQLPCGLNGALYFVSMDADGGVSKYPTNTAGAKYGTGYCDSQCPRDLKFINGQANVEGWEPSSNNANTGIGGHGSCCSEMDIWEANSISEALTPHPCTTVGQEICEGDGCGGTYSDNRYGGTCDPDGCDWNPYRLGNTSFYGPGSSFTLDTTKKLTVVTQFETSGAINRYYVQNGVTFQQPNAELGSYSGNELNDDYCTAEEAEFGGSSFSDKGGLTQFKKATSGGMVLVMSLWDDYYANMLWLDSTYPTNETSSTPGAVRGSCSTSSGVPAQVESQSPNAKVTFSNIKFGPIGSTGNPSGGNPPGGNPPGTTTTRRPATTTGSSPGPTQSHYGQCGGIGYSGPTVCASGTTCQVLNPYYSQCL
# Description: as §1, §2
# (§6) Cellobiose product tolerant substitutions were introduced into T. reesei CBH I (SEQ ID NO:2). A panel of variants with single and double alanine and lysine substitutions at R268 and R411 were expressed and analyzed. […]
# [5] = molecular target: T. reesei CBH I variant R268K/R411K (parent SEQ ID NO:2) (Trichoderma reesei, UniProt A0A024RXP8, R268K/R411K); test: 4-MUL assay, cellobiose inhibition, T. reesei CBH I R268K/R411K; conditions: read-out: % Activity in 4-MUL Assay (+/−Cellobiose), 250 mg/L cellobiose, (activity with cellobiose)/(activity without cellobiose)*100
# T. reesei CBH I variant R268K/R411K (parent SEQ ID NO:2), sequence (A0A024RXP8 18-514 R268K/R411K): as the sequence (P62694 other isoform, or with tags, fused parts or gaps INS458P/R459P) above, with R251K, R394K counted along it
# Description: as §1, §2, §6
# [6] = molecular target: T. reesei CBH I variant R268A/R411A (parent SEQ ID NO:2) (Trichoderma reesei, UniProt A0A024RXP8, R268A/R411A); test: 4-MUL assay, cellobiose inhibition, T. reesei CBH I R268A/R411A; conditions: read-out: % Activity in 4-MUL Assay (+/−Cellobiose), 250 mg/L cellobiose, (activity with cellobiose)/(activity without cellobiose)*100
# T. reesei CBH I variant R268A/R411A (parent SEQ ID NO:2), sequence (A0A024RXP8 18-514 R268A/R411A): as the sequence (P62694 other isoform, or with tags, fused parts or gaps INS458P/R459P) above, with R251A, R394A counted along it
# Description: as §1, §2, §6
# [7] = molecular target: T. reesei CBH I variant R268A/R411K (parent SEQ ID NO:2) (Trichoderma reesei, UniProt A0A024RXP8, R268A/R411K); test: 4-MUL assay, cellobiose inhibition, T. reesei CBH I R268A/R411K; conditions: read-out: % Activity in 4-MUL Assay (+/−Cellobiose), 250 mg/L cellobiose, (activity with cellobiose)/(activity without cellobiose)*100
# T. reesei CBH I variant R268A/R411K (parent SEQ ID NO:2), sequence (A0A024RXP8 18-514 R268A/R411K): as the sequence (P62694 other isoform, or with tags, fused parts or gaps INS458P/R459P) above, with R251A, R394K counted along it
# Description: as §1, §2, §6
# [8] = molecular target: T. reesei CBH I variant R268K/R411A (parent SEQ ID NO:2) (Trichoderma reesei, UniProt A0A024RXP8, R268K/R411A); test: 4-MUL assay, cellobiose inhibition, T. reesei CBH I R268K/R411A; conditions: read-out: % Activity in 4-MUL Assay (+/−Cellobiose), 250 mg/L cellobiose, (activity with cellobiose)/(activity without cellobiose)*100
# T. reesei CBH I variant R268K/R411A (parent SEQ ID NO:2), sequence (A0A024RXP8 18-514 R268K/R411A): as the sequence (P62694 other isoform, or with tags, fused parts or gaps INS458P/R459P) above, with R251K, R394A counted along it
# Description: as §1, §2, §6
# [9] = test system: CBH I polypeptide BD29555, wild type, SEQ ID NO:1; test: Phosphoric acid swollen cellulose (PASC) assay, cellobiose inhibition, wild type BD29555; conditions: PASC substrate, FIG. 3
# Description: (§7) Phosphoric Acid Swollen Cellulose (PASC) Assay: This assay measures the activity of CBH I using PASC as the substrate. During the assay, the concentration of PASC is monitored by a fluorescent signal derived from calcofluor binding to PASC (ex/em 365/440 nm). The assay is initiated by mixing enzyme (15 μl) and reaction buffer (85 μl of 0.2% PASC, 200 mM MES, pH 6), and then incubating at 35° C. while shaking at 225 RPM. After 2 hours, one reaction volume of calcofluor stop solution (100 μg/ml in 500 mM glycine pH 10) is added and fluorescence read-outs obtained (ex/em 365/440 nm).
# as §4, with “Furthermore, when activity in the presence and absence of BG are similar, this indicates tolerance to cellobiose.” left out
# [10] = molecular target: T1, T. reesei CBH I, wild type, SEQ ID NO:2; test: PASC assay, cellobiose inhibition, wild type T. reesei CBH I
# Description: as §7
# as §4, with “Furthermore, when activity in the presence and absence of BG are similar, this indicates tolerance to cellobiose.” left out
# [11] = test system: BD29555 CBH I variant R273K/R422K (parent SEQ ID NO:1; full length SEQ ID NO:301, mature SEQ ID NO:302); test: PASC assay, cellobiose inhibition, BD29555 R273K/R422K variant; conditions: 10 g/L cellobiose, PASC substrate, FIG. 3
# Description: as §7
# as §4, with “Furthermore, when activity in the presence and absence of BG are similar, this indicates tolerance to cellobiose.” left out
# [12] = test system: BD29555 CBH I variant R273A (parent SEQ ID NO:1); test: Library screening, 4-MUL assay in presence and absence of cellobiose, BD29555 R273A; conditions: library screen, 250 g/L cellobiose (so in the source), gluconolactone present
# Description: as §1
# as §2, with “mixtures.” for “mixtures. A different indirect method entails the addition of an excess amount of β-glucosidase (BG) to PASC and bagasse assays (typically, 1 mg β-glucosidase/g solids loaded).”
# as §5
# [13] = test system: BD29555 CBH I variant R273Q (parent SEQ ID NO:1); test: Library screening, 4-MUL assay in presence and absence of cellobiose, BD29555 R273Q; conditions: library screen, 250 g/L cellobiose (so in the source), gluconolactone present
# Description: as §1
# as §2, with “mixtures.” for “mixtures. A different indirect method entails the addition of an excess amount of β-glucosidase (BG) to PASC and bagasse assays (typically, 1 mg β-glucosidase/g solids loaded).”
# as §5
compound,measurement,setting,value
OC[C@H]1O[C@@H](O[C@H]2[C@H](O)[C@@H](O)C(O)O[C@@H]2CO)[C@H](O)[C@@H](O)[C@@H]1O (stereo partly drawn) [cellobiose],% Activity in 4-MUL Assay (+/−Cellobiose),"[1]; 250 mg/L cellobiose, (activity with cellobiose)/(activity without cellobiose)*100, wild type BD29555",25%
same,half maximal inhibitory concentration (IC50 value),"[1]; 4-MUL substrate, 200 mM MES pH 6, 25° C., rates in quadruplicate, FIG. 1A",60 µg/mL
same,% Activity in 4-MUL Assay (+/−Cellobiose),"[2]; 250 mg/L cellobiose, (activity with cellobiose)/(activity without cellobiose)*100, R273K/R422K",95%
same,tolerance to cellobiose (dose response),"[2]; 4-MUL substrate, 200 mM MES pH 6, 25° C., FIG. 1B",tolerant to cellobiose up to 250 mg/L
same,product tolerance,"[2]; library screen, 4-MUL assay, 250 g/L cellobiose (so in the source), gluconolactone present",enhanced product tolerance
same,% Activity in 4-MUL Assay (+/−Cellobiose),[3],78%
same,activity at 250 µg/mL,[4],23%
same,activity at 250 µg/mL,[5],> 90%
same,activity at 250 µg/mL,[6],> 90%
same,activity at 250 µg/mL,[7],> 90%
same,activity at 250 µg/mL,[8],> 90%
same,IC50,[9],2200 µg/mL
same,cellobiose concentration at which inhibition starts,[9],around 1 g/L
same,IC50,[10],8.76 mM
same,cellobiose concentration at which inhibition starts,"[10]; PASC substrate, FIG. 3",around 1 g/L
same,inhibition by cellobiose,[11],little inhibition
same,product tolerance,[12],enhanced product tolerance
same,product tolerance,[13],enhanced product tolerance

# From US9096871B2, “Variant CBH I polypeptides with reduced product inhibition” (BP Corporation North America Inc., priority 2010, dated 2015)
